Experimental data: US6432692B1, “Sensitive bioassay for detecting agonists of the aryl hydrocarbon receptor” (Wisconsin Alumni Research Foundation, priority 1999, dated 2002)

Experiments:
AHR = settings: mouse hepatoma cells overexpressing ARA9; cited from earlier work
GR-LexA chimera = GR-LexA chimera β-galactosidase reporter dose-response in yeast strain L40; format: cell-based
Protocol: Pharmacology in yeast: AHR dose-response curves were performed in the S. cerevisiae strain L40 as described previously (Carver et al., 1994, supra). Two days after plasmid transformation, the colonies were replica plated on media with various concentrations of βNF spread on the surface. The replica plates were then incubated for two days at 30° C. For each dose of βNF, three colonies were suspended in 100 μl of Z-buffer (60 mM Na2HPO4, 40 mM NaH2PO4, 10 mM KCl, 1 MM MgSO4, 35 mM 2-mercaptoethanol) and cell density was estimated by reading the A600. Twenty microliters of the remaining cell suspension was added to 130 μl Z-buffer, 25 μl 0.1%SDS (w/v), 25 μl CHCl3 and disrupted at high speed for 10 sec. Thirty microliters of a 4 mg/ml ONPG solution was added and the mixture incubated for 2-5 min at 30° C. The reaction was stopped by adding 75 μl of 1M NaCO3, the cell debris removed by centrifugation and the A420 was determined. Beta-galactosidase units were determined using the following formula (A420/(A600 of 1/10 dilution of cells×volume of culture×time of incubation))×1,000. […]
Next, the specificity of ARA3 for the AHR signaling pathway in yeast was examined. […] In this system, GR is expressed as a LexA fusion protein in which the LexA binding domain replaces the GR DNA binding domain.

LexA-AHR chimera = molecular target: T1, LexA-AHR chimera (Mus musculus, UniProt P30561); assay: LexA-AHR chimera / LexA-operator β-galactosidase reporter dose-response in yeast strain L40; format: cell-based
T1 construct: expressed in transfected cells; host or cells: Saccharomyces cerevisiae strain L40; the other entry of the earlier key: lexA (P0A7C2, LexA repressor)
Protocol: Pharmacology in yeast: AHR dose-response curves were performed in the S. cerevisiae strain L40 as described previously (Carver et al., 1994, supra). Two days after plasmid transformation, the colonies were replica plated on media with various concentrations of βNF spread on the surface. The replica plates were then incubated for two days at 30° C. For each dose of βNF, three colonies were suspended in 100 μl of Z-buffer (60 mM Na2HPO4, 40 mM NaH2PO4, 10 mM KCl, 1 MM MgSO4, 35 mM 2-mercaptoethanol) and cell density was estimated by reading the A600. Twenty microliters of the remaining cell suspension was added to 130 μl Z-buffer, 25 μl 0.1%SDS (w/v), 25 μl CHCl3 and disrupted at high speed for 10 sec. Thirty microliters of a 4 mg/ml ONPG solution was added and the mixture incubated for 2-5 min at 30° C. The reaction was stopped by adding 75 μl of 1M NaCO3, the cell debris removed by centrifugation and the A420 was determined. Beta-galactosidase units were determined using the following formula (A420/(A600 of 1/10 dilution of cells×volume of culture×time of incubation))×1,000. To examine expression levels of FKBP52 and ARA9 in yeast, we performed western blot analysis on cell extracts as described previously (Hogenesch et al., J. Biol. Chem. 272: 8581-8593, 1997).
ARA9 enhances ligand responsiveness of AHR: Given the sequence similarities between ARA9 and FKBP52, we asked if either protein could influence AHR signaling in vivo. To this end, we employed a LexA-AHR chimera and a LexA-operator-driven β-galactosidase reporter gene in the yeast S. cerevisiae (Carver et al., 1994, supra). Beta-napthoflavone dose-response curves were constructed for the LexA-AHR in the presence and absence of ARA9 (FIG. 5).
ARA3 was a candidate for a novel regulator of AHR signaling because of its ligand-dependent association with AHR in the two-hybrid screen. The influence of ARA3 on AHR signaling was investigated to determine modifier status. To accomplish this, an ARA3 cDNA (lacking the heterologous TAD from the two-hybrid clone, TAD-NΔ113ARA3) was expressed with LexA-NΔ166AHR in the L40 strain of yeast with increasing concentrations of β-NF.

T1 sequence (P30561 with tags, fused parts or gaps): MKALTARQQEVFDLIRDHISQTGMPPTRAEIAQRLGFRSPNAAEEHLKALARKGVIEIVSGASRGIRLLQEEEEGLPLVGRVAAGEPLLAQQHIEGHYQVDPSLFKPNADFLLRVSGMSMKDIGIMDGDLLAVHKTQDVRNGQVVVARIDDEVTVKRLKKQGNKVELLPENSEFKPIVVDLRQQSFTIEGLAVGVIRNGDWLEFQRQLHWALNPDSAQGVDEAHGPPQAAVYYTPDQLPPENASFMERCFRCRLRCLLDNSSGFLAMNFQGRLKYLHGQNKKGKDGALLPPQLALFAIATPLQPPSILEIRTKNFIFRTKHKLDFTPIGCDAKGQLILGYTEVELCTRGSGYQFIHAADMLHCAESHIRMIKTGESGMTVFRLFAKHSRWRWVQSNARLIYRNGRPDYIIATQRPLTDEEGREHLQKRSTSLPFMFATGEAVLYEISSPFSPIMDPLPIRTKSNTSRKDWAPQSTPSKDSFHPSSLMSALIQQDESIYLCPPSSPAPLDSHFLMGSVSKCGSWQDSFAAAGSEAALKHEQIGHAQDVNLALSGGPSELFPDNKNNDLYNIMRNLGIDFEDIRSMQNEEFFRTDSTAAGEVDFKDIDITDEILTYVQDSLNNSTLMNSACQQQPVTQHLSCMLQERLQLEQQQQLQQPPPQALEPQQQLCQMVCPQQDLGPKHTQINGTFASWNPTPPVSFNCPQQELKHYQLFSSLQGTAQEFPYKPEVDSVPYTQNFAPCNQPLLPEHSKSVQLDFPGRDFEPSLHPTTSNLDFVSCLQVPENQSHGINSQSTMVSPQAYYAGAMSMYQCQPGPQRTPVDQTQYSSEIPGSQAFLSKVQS
T1 sequence (P15108 whole entry partner): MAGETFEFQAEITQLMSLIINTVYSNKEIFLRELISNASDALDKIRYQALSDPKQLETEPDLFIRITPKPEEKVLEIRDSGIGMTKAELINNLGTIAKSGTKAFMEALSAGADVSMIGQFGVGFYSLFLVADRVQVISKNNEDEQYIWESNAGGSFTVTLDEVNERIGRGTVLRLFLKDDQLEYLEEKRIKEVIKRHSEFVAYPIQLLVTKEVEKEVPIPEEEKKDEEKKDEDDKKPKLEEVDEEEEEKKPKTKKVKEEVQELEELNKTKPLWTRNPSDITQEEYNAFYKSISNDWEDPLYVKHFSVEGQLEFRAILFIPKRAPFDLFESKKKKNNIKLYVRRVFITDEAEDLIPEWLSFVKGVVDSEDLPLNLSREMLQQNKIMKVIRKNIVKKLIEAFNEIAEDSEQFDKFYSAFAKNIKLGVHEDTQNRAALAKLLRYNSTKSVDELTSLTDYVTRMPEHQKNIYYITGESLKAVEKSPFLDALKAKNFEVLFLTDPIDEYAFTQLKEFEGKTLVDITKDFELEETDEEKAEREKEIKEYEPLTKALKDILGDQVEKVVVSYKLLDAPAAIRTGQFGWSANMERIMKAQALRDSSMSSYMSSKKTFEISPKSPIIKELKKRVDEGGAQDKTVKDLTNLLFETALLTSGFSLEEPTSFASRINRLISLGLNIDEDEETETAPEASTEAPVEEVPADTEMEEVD

SMILES: Clc1cc2c(cc1Cl)Oc1cc(Cl)c(Cl)cc1O2 [TCDD, 2,3,7,8-tetrachlorodibenzo-p-dioxin]
- increase of response of the system on overexpression of ARA9 (AHR): 2-3 fold

SMILES: C[C@]12CC[C@H]3[C@@H](CCC4=CC(=O)CC[C@@]43C)[C@@H]1CC[C@@H]2C(=O)CO [deoxycorticosterone]
- alteration of signaling profile of GR by ARA3 (GR-LexA chimera; co-expression of ARA3 with NlxC-GR): did not alter the signaling profile
- alteration of response of GR-LexA chimera by ARA9 or FKBP52 (GR-LexA chimera; co-expression of ARA9 or FKBP52): nor could either factor alter the response

SMILES: O=c1cc(-c2ccccc2)oc2ccc3ccccc3c12 [βNF, Beta-napthoflavone]
- increase of maximal response of AHR by ARA3 (LexA-AHR chimera; co-expression of ARA3 (NΔ113ARA3) with LexA-NΔ166AHR): four-fold
- increase of maximal response in the presence of ARA9 (LexA-AHR chimera; co-expression of ARA9 versus absence): approximately 2.5 fold
- decrease of EC50 when ARA9 was present (LexA-AHR chimera; co-expression of ARA9 versus absence, β-galactosidase, ONPG assay): approximately 5 fold
- shift in AHR dose-response elicited by FKBP52 (LexA-AHR chimera; co-expression of FKBP52): could not be elicited
- shift of dose-response curve by ARA3 (LexA-AHR chimera; co-expression of NΔ113ARA3 with LexA-NΔ166AHR): shifted the curve to the left
